Earlier results as cited in Sander's compilation of Henry's law constants (doi:10.1021/je049850a).

Experiment: Henry solubility constant Hcp at 298.15 K (mol/(m3 Pa))
Conditions: reference: Plyasunov et al. (2004); cited value

Compound | Henry solubility constant Hcp
CCC(=O)OC [methyl propanoate] | 0.055
CC(=O)OC(C)(C)C [1,1-dimethylethyl ethanoate] | 0.011
CCCOC=O [propyl methanoate] | 0.028
CCCCOC=O [butyl methanoate] | 0.019
CCC(=O)OCC(C)C [(2-methylpropyl)-propanoate] | 0.015
CCCCCOC=O [pentyl methanoate] | 0.016
CCCCOC(C)=O [butyl ethanoate] | 0.035
CCOC(=O)CC(C)C [ethyl 3-methylbutanoate] | 0.014
CCCCCCCC(=O)OC [methyl octanoate] | 0.012
CCCOC(C)=O [propyl ethanoate] | 0.045
CC(=O)OCCC(C)C [3-methylbutyl ethanoate] | 0.02
CCOC(=O)C(C)C [ethyl 2-methylpropanoate] | 0.017
CC(=O)OCC(C)C [2-methylpropyl ethanoate] | 0.024
CCCC(=O)OC [methyl butanoate] | 0.042
CCCCCCOC=O [hexyl methanoate] | 0.01
COC(=O)C(C)(C)C [methyl 2,2-dimethylpropanoate] | 0.0095
CCOC(=O)C(C)CC (stereo not drawn) [ethyl 2-methylbutanoate] | 0.014

Compound | Henry solubility constant Hcp
CCOC(C)=O [ethyl ethanoate] | 0.063
CC(C)OC=O [isopropyl methanoate] | 0.019
CCOC=O [ethyl methanoate] | 0.035
CCCCCCCCCC(=O)OCC [ethyl decanoate] | 0.012
CC(C)COC=O [(2-methylpropyl)-methanoate] | 0.016
CCCCCCCCC(=O)OC [methyl nonanoate] | 0.0082
CCCCCCC(=O)OC [methyl heptanoate] | 0.018
COC(=O)C(C)C [methyl 2-methylpropanoate] | 0.026
COC(C)=O [methyl ethanoate] | 0.081
CC(C)COC(=O)C(C)C [2-methylpropyl 2-methylpropanoate] | 0.0078
CCC(C)OC(C)=O (stereo not drawn) [2-butyl ethanoate] | 0.023
CCCC(=O)OC(C)C [2-propyl butanoate] | 0.018
CC(=O)OC(C)C [2-propyl ethanoate] | 0.033
CCC(=O)OC(C)C [isopropyl propanoate] | 0.018
CCOC(=O)C(C)(C)C [ethyl 2,2-dimethylpropanoate] | 0.0057
CC(C)CCOC=O [3-methylbutyl methanoate] | 0.012

The remaining lines, values ahead:

Henry solubility constant Hcp | Compound
0.019 | CCCCCOC(=O)CC [pentyl propanoate]
0.016 | CCCCOC(=O)CCC [butyl butanoate]
0.017 | CCCCCCCC(=O)OCC [ethyl octanoate]
0.041 | CCOC(=O)CC [ethyl propanoate]
0.022 | CCCOC(=O)CCC [propyl butanoate]
0.03 | CCCCC(=O)OC [methyl pentanoate]
0.026 | CCCCCC(=O)OC [methyl hexanoate]
0.027 | CCCCCOC(C)=O [pentyl ethanoate]
0.02 | CCCCOC(=O)CC [butyl propanoate]
0.0098 | CCCCOC(=O)CCCC [butyl pentanoate]
0.023 | CCCCC(=O)OCC [ethyl pentanoate]
0.029 | CCCOC(=O)CC [propyl propanoate]
0.029 | CCCC(=O)OCC [ethyl butanoate]
0.019 | CCCCCC(=O)OCC [ethyl hexanoate]
0.017 | CCCCCCOC(C)=O [hexyl ethanoate]
